Like-named read-outs stand apart in the source and are kept apart here.
Legend:
[1] = Intravenous TAF pharmacokinetic mouse study (plasma, PBMC, tissue homogenate); format: in vivo, C57BL/6 J mice; details: female, C57BL/6 J, mouse, iv, 0.5 mg
Method: C57BL/6 J Mice (9 groups of 4 animals each; 36 mice total) were administered the study product (0.5 mg dose, 0.1 mL) by intravenous (IV) injection. Animals (N = 4) were sacrificed at the following timepoints: Day 1 (1, 3, 6, 12, 24 h), Day 2, 4, 8, and 14. Blood was collected by exsanguination along with select tissue specimens (vide infra).
The isolation of plasma and PBMCs from blood samples was carried out in a laminar flow hood using aseptic techniques, and the entire process was completed in under 45 min to minimize analyte metabolism. Blood was transferred into collection tubes containing sodium citrate (final concentration, 0.4% w/v), diluted using one volume equivalent of 1 × PBS solution, and mixed by inversion. The minimum final volume was 4.0 mL. Prior to the addition of blood samples, Ficoll-Paque media (MilliporeSigma, Burlington, MA, 3.2 mL) was transferred into a 12 mL LeucoSep tube (Greiner, Monroe, NC) and centrifuged at 1000 g for 20 s at room temperature, causing the media to settle just below the porous barrier. The homogenous, diluted blood-PBS mixture was transferred into the prepared LeucoSep tube and centrifuged at 1000 g for 10 min at room temperature, resulting in the formation of three layers above the porous barrier: (A) top layer, consisting of the plasma fraction; (B) middle, interface layer, containing the PBMCs; and (C) thin lower layer, just above the barrier, consisting of Ficoll-Paque media. Layer A (plasma) was transferred to empty 1.5 mL microfuge tubes in 0.5 mL aliquots, and flash-frozen in liquid nitrogen. Layer B (PBMCs) was transferred into an empty 15 mL centrifuge tube and PBS added to the 12 mL mark, followed by gentle inversion mixing. The suspension was centrifuged at 400 g for 15 min, the supernatant removed, and the pellet resuspended in PBS (10 mL) by gentle pipetting. An aliquot (10 µL) was removed from the suspension for cell counting and the remaining sample was centrifuged at 400 g for 15 min. The supernatant was removed without disturbing the cell pellet, which was treated with ice-cold 70% v/v methanol in molecular-grade water (1.0 mL). The mixture was mixed lightly by vortex agitation to lyse the cells, followed by transfer to a 2.0 mL cryovial that was flash-frozen in liquid nitrogen.
Vaginal, rectal, spleen, and thymus tissue samples were collected from sacrificed animals at Day 1 (12, 24 h), Day 4, and 8; rectal tissue samples were not collected at 12 h. The samples were transferred into pre-weighed sample tubes, weighed, and flash-frozen in liquid nitrogen.
PBMC results were normalized to the number of cells and reported as fmol/10^6 cells or as intracellular concentration based on cell volume, in nM. Tissue results were normalized to sample mass and reported as ng mg^-1 or fmol mg^-1.

[2] = subcutaneous dosing of the free drug, humanized mice; cited from earlier work

## C[C@H](Cn1cnc2c(N)ncnc21)OCP(=O)(O)O [TFV, tenofovir]
[1]; rectal tissue, read-out: Terminal half-life in rectal tissue (NCA) (converted)
  half-life: 43 h
[1]; spleen, read-out: Terminal half-life in spleen (NCA) (converted)
  half-life: 30.5 h
[1]; thymus, read-out: Terminal half-life in thymus (NCA) (converted)
  half-life: 20.1 h
[1]; vaginal tissue, read-out: Terminal half-life in vaginal tissue (NCA) (converted)
  half-life: 39.1 h
[2]
  Plasma TFV t1/2: 14 h
